From US10392345B2, “Crystal of salt of novel 3-azabicyclo[3.1.0]hexane derivative and pharmaceutical use thereof” (SANWA KAGAKU KENKYUSHO CO., LTD., priority 2015, dated 2019) come the findings set out here.

A short description of this data set: Mice serum protein binding assay (equilibrium dialysis, RED Device). Type of data set: in vitro ADME. The conditions noted are these: CD-1 (ICR), mouse, pH 7.4, murine serum, 37° C., 5 to 6 hours, read-out: Protein binding rate (converted). As to the method:
The protein binding rate was determined by equilibrium dialysis method using the RED Device (8K MWCO, Rapid Equilibrium Dialysis Device, Thermo Scientific). The test substances that had been dissolved in DMSO were added to the serum that was collected from Cr1: CD-1 (ICR) mice fasted overnight, so that the final concentration of DMSO became 1% (v/v). The serum to which the test substance had been added was added to the inner side of the dialysis membrane of the RED Device, and PBS (phosphate buffer saline, pH 7.4) containing 0.01% (v/v) Tween 80 was added to the outside in accordance with the method for using the RED Device and incubated at 37° C. for 5 to 6 hours with ellipsoidal shaking at 100 rpm so that the concentration of the unbound test substance in the serum and the concentration of the test substance in the PBS reached equilibrium. […] The proteins were removed from the measurement sample by adding acetonitrile in an amount of 5-fold or more of the amount of the internal standard substance and the serum sample, and the supernatants were measured by LC/MS/MS (liquid chromatograph-triple quadrupole mass spectrometer). The serum samples were measured after suitably diluting with distilled water as necessary. […]
However, in the case when the concentration in the sample was calculated by using a calibration curve, A and B were as follows.
(In general: In equilibrium dialysis only unbound substance equilibrates across the membrane.)

Consider `CC[C@]1(c2cccc(NS(C)(=O)=O)c2)[C@@H]2CN(CC3(O)Cc4ccccc4C3)C[C@@H]21` [Comparative Compound 1, N-(3-{(1R,5S,6r)-6-ethyl-3-[(2-hydroxy-2,3-dihydro-1H-inden-2-yl)methyl]-3-azabicyclo[3.1.0]hexan-6-yl}phenyl)methanesulfonamide methanesulfonate], for which the fraction unbound was 0.068.
